Consider four molecules from publication PMC6358021 (European journal of medicinal chemistry, 2018).

For data set [1], the system named is human Smo. The settings on record: HEK293 cells that stably express human Smo; cited from earlier work.
The target of data set [2] is P-glycoprotein (Pgp) (Homo sapiens, UniProt P08183). Kind of data set: P-glycoprotein substrate assessment. The settings on record: CRO service (Pharmaron or Cyprotex). It is filed as in vitro ADME.
Data set [3] deals with Gli1 mRNA expression in ASZ cells. As to the kind of experiment: Hh inhibition: down-regulation of endogenous Gli1 mRNA expression in ASZ cells. The data set is classed as cell-based, murine.
Data set [4] has as its target CYP3A4 (Homo sapiens, UniProt P08684). As to the kind of experiment: CYP3A4 inhibition. It is filed as in vitro ADME. As to conditions: removal of the triazole moiety.

P-glycoprotein (Pgp), sequence (P08183 whole entry): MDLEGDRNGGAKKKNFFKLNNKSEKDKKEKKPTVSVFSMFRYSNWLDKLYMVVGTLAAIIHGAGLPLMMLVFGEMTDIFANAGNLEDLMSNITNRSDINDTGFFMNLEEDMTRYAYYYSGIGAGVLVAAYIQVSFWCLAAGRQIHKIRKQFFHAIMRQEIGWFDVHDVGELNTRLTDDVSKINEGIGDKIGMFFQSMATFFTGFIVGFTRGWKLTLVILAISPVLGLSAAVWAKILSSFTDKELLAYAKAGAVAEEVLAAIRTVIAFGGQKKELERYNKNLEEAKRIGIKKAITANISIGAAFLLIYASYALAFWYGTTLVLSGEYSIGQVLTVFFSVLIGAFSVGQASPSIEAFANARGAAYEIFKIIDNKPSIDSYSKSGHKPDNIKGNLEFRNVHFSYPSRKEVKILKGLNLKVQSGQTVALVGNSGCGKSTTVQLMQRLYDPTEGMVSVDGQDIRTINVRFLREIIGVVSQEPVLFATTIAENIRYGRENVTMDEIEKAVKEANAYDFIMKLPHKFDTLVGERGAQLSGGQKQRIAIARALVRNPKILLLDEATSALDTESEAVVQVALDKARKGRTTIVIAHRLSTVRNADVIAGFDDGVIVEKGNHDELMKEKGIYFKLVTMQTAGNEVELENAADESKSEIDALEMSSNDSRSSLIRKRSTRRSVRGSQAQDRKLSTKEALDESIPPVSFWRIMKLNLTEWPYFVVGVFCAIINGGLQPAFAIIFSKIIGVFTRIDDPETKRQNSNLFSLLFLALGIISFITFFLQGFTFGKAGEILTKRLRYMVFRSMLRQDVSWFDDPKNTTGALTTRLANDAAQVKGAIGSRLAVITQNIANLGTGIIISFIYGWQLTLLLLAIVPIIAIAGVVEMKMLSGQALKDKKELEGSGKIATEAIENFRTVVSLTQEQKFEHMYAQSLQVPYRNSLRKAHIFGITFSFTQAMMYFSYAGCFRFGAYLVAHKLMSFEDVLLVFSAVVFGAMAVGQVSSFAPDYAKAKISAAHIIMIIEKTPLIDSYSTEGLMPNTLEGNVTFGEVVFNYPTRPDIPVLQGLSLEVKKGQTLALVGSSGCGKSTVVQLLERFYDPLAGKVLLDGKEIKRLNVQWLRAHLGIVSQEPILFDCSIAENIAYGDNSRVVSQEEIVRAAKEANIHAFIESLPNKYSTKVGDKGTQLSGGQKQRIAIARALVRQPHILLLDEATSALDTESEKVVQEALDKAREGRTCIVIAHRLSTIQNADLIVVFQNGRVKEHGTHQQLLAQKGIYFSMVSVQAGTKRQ
CYP3A4, sequence (P08684 whole entry): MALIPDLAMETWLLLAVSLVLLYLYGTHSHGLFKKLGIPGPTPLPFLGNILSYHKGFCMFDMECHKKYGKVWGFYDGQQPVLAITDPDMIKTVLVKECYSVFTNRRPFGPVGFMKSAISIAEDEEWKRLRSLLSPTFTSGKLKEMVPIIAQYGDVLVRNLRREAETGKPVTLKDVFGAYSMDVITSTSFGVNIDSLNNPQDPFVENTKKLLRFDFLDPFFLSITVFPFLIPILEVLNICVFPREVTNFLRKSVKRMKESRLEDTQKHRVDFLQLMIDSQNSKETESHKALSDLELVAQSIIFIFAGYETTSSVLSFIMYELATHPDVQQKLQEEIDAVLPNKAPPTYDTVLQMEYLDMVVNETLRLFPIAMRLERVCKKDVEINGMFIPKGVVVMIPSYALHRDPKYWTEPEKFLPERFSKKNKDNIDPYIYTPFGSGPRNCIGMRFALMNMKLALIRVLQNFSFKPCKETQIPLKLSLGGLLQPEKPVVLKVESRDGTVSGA

For `CCC(C)n1ncn(-c2ccc(N3CCN(c4ccc(OCC5COC(Cn6cncn6)(c6ccc(Cl)cc6Cl)O5)cc4)CC3)cc2)c1=O` (stereo not drawn) [ITZ, itraconazole], in data set [1], the “displacement of a tritiated Smo antagonist” value is “significantly displaced”.

In the case of `CC[C@@H]([C@H](C)O)n1ncn(-c2ccc(N3CCN(c4ccc(OC[C@@H]5CO[C@@](Cn6cncn6)(c6ccc(F)cc6F)C5)cc4)CC3)cc2)c1=O` [PSZ, Posaconazole, reference compound], the “P-gp Substrate” value in data set [2] is “identified as a substrate”. As for `CC[C@@H](C)n1ncn(-c2ccc(N3CCN(c4ccc(OC[C@@H]5CO[C@@](C)(c6ccc(F)cc6F)C5)cc4)CC3)cc2)c1=O` [analogue 1, 2-((R)-sec-butyl)-4-(4-(4-(4-(((3R,5R)-5-(2,4-difluorophenyl)-5-methyltetrahydrofuran-3-yl)methoxy)phenyl)-piperazin-1-yl)phenyl)-2,4-dihydro-3H-1,2,4-triazol-3-one], the “P-gp Substrate” value in data set [2] was “not a substrate”. In data set [3] (ratio of IC50 values), the “fold more potent than PSZ” value is “approximately 2.5 fold”. In addition, the “ability to inhibit Cyp3A4, in words” value in data set [4] is “completely abolished”.

Take `CC1(c2ccc(Cl)cc2Cl)OCC(COc2ccc(N3CCN(c4ccc(-n5cnn(CCC(=O)O)c5=O)cc4)CC3)cc2)O1` (stereo not drawn) [analogue 21, 3-(4-(4-(4-(4-((2-(2,4-dichlorophenyl)-2-methyl-1,3-dioxolan-4-yl)methoxy)phenyl)piperazin-1-yl)phenyl)-5-oxo-4,5-dihydro-1H-1,2,4-triazol-1-yl)propanoic acid]: in data set [3], the “fold more active than 19” value is given as “approximately 2 fold”.
